Measured values published in US11110139B2, “Application of anthocyanin extract in preparing pharmaceutical composition for preventing and treating cardiac toxicity induced by anthracyclines and pharmaceutical composition” (Northwest Institute of Plateau Biology, Chinese Academy of …, priority 2017, dated 2021).

What was measured:
[1] = test system: rat cardiomyocyte cell line H9c2; type: cell-based; conditions: 24 h, 20 μM
Description: (§1) A rat cardiomyocyte cell line H9c2: a DMEM culture medium (containing 10% new-born calf serum, 2 mM glutamate and 1% streptomycin/penicillin) was employed to culture, and a culture condition was an aseptic environment at 37° C. and 5% C02. The culture medium was replaced once every 2-3 d, and when cells were cultured for 24 h and 80% were aggregated, a medicament treatment was performed. A control group, a model group (containing 20 μM DOX), and a nitraria anthocyanin extract experimental group (containing 20 μM DOX and 5-500 μg/mL nitraria anthocyanin extract) were respectively provided, and after they were treated for 24 h, a change in cardiomyocyte apoptosis was detected by a flow cytometer according to operating instructions of a kit by employing an FITC-Annexin V/propidium iodide (PI) fluorescence double staining method.

[2] = test system: rat cardiomyocyte cell line H9c2; type: cell-based; conditions: 24 h, 20 μM; remark: listed apart in the source
Description: as §1, with “CO2.” for “C02.”, “provided,” for “provided, and”, “an extracellular fluid was collected, and LDH and CK levels” for “a change”, “the extracellular fluid were” for “cardiomyocyte apoptosis was”, “by” for “by a flow cytometer according to operating instructions of a kit by”, “LDH and CK array kits.” for “an FITC-Annexin V/propidium iodide (PI) fluorescence double staining method.”

[3] = test system: rat cardiomyocyte cell line H9c2; assay: Aggregated level of cardiomyocyte ROS (DCFH-DA, flow cytometer); type: cell-based; conditions: H9c2, 20 μM DOX alone, 24 h
Description: A rat cardiomyocyte cell line H9c2: a DMEM culture medium (containing 10% new-born calf serum, 2 mM glutamate and 1% streptomycin/penicillin) was employed to culture, and a culture condition was an aseptic environment at 37° C. and 5% CO2. The culture medium was replaced once every 2-3 d, and when cells were cultured for 24 h and 80% were aggregated, a medicament treatment was performed. A control group, a model group (containing 20 μM DOX), and a nitraria anthocyanin extract experimental group (containing 20 μM DOX and 5-500 μg/mL nitraria anthocyanin extract) were respectively provided, and after they were treated for 24 h, 2′, 7′-dichlorodihydro-fluorescein diacetate (DCFH-DA, 20 μM) was added to incubate for 20 min at 37° C., and a flow cytometer was employed to detect an aggregated level of cardiomyocyte ROS. According to experimental results (as shown in FIG. 8), after the 20 μM DOX is treated for 24 h, the aggregated level of the cardiomyocyte ROS is increased to 3.5 times of a normal cell; and after the DOX and the 5-500 μg/mL nitraria anthocyanin extract are co-treated for 24 h, the aggregated level of the cardiomyocyte ROS only is 2.16-3.29 times of the normal cell.

[4] = test system: bcl-2, bax, caspase-3 and caspase-9 protein expression in H9c2; assay: Western blot of bcl-2, bax, caspase-3 and caspase-9 in H9c2; type: cell-based, rat; conditions: H9c2, 20 μM DOX alone, 24 h
Description: A rat cardiomyocyte cell line H9c2: a DMEM culture medium (containing 10% new-born calf serum, 2 mM glutamate and 1% streptomycin/penicillin) was employed to culture, and a culture condition was an aseptic environment at 37° C. and 5% CO2. The culture medium was replaced once every 2-3 d, and when cells were cultured for 24 h and 80% were aggregated, a medicament treatment was performed. A control group, a model group (containing 20 μM DOX), and a nitraria anthocyanin extract experimental group (containing 20 μM DOX and 5-500 μg/mL nitraria anthocyanin extract) were respectively provided, and after they were treated for 24 h, the cells were scrapped, and were collected by centrifugation; and after being cleaned by a phosphate buffer, the cells were resuspended in a lysis buffer. After cell debrises were removed by the centrifugation, a supernatant was collected and a soluble protein concentration was determined using a BCA protein concentration assay kit. A protein solute, after being separated by 12% SDS-PAGE electrophoresis, was transferred to a PVDF membrane and thereafter was labeled by bcl-2, bax, caspase-3 and caspase-9 antibodies. An optical density of a band was determined by Quantity One software (v4.62, American Bio-Rad Company). And αβ-tubulin was taken as a protein sample loading internal reference substance.

[5] = test system: rat cardiomyocyte cell line H9c2; type: cell-based; conditions: 24 h, 20 μM; remark: listed apart in the source
Description: as §1, with “CO2.” for “C02.”, “aggregated, was transferred to a 96-well plate with a cell density being 1×10^5/well; after the cells were continued to culture for 24 h,” for “aggregated,”, “cell viability” for “change in cardiomyocyte apoptosis”, “by” for “by a flow cytometer according to operating instructions of a kit by employing”, “MTT” for “FITC-Annexin V/propidium iodide (PI) fluorescence double staining”

COc1cccc2c1C(=O)c1c(O)c3c(c(O)c1C2=O)C[C@@](O)(C(=O)CO)C[C@@H]3O[C@H]1C[C@H](N)[C@H](O)[C@H](C)O1 [DOX, doxorubicin]
number of FITC-Annexin V positive cells [1]: 1.49%
CK level in the extracellular fluid, times of a normal cell [2]: 2.87 times
LDH level in the extracellular fluid, times of a normal cell [2]: 2.65 times
aggregated level of cardiomyocyte ROS, times of a normal cell [3]: 3.5 times
Bax/Bcl-2 protein expression ratio versus normal cell [4]: increased to two times of a normal cell
bax protein expression [4]: significantly increased
bcl-2 protein expression [4]: significantly reduced
protein expression of cut and activated caspase-3 [4]: significantly increased
protein expression of cut and activated caspase-9 [4]: significantly increased
cell viability, of a normal cell [5]: 62.12%
